Reference: EP4194453A1, “PYRAZINE COMPOUNDS FOR THE CONTROL OF INVERTEBRATE PESTS” (BASF SE, priority 2021, dated 2023)

Legend:
Format in all cases: in vivo
[1] = system: Diamond back moth (Plutella xylostella); assay: Diamond back moth leaf-dip test on cabbage leaves; conditions: 3rd instar larvae, 72 hours after treatment, in comparison with untreated controls
Method: The active compound was dissolved at the desired concentration in a mixture of 1:1 (vol:vol) distilled water: acetone. Surfactant (Kinetic HV) was added at a rate of 0.01% (vol/vol). The test solution was prepared on the day of use.
Leaves of cabbage were dipped in test solution and air-dried. Treated leaves were placed in petri dishes lined with moist filter paper and inoculated with ten 3rd instar larvae. Mortality was recorded 72 hours after treatment. Feeding damages were also recorded using a scale of 0-100%.

[2] = system: Green Peach Aphid (Myzus persicae); assay: Green peach aphid systemic test, artificial diet in microtiter plates; conditions: 72 h, adult aphids, 3 days, in comparison with untreated controls
Text: For evaluating control of green peach aphid (Myzus persicae) through systemic means the test unit consisted of 96-well-microtiter plates containing liquid artificial diet under an artificial mem brane.
The compounds were formulated using a solution containing 75% v/v water and 25% v/v DMSO. Different concentrations of formulated compounds were pipetted into the aphid diet, using a custom built pipetter, at two replications.
After application, 5-8 adult aphids were placed on the artificial membrane inside the microtiter plate wells. The aphids were then allowed to suck on the treated aphid diet and incubated at about 23 ± 1°C and about 50 ± 5 % relative humidity for 3 days. Aphid mortality and fecundity was then visually assessed.

[3] = system: Tobacco budworm (Heliothis virescens); assay: Tobacco budworm insect diet test in microtiter plates; conditions: 120 h, egg and larval mortality, 5 days, in comparison with untreated controls
Method: For evaluating control of tobacco budworm (Heliothis virescens) the test unit consisted of 96-well-microtiter plates containing an insect diet and 15-25 H. virescens eggs.
The compounds were formulated using a solution containing 75% v/v water and 25% v/v DMSO. Different concentrations of formulated compounds were sprayed onto the insect diet at 10 µl using a custom-built micro atomizer, at two replications.
After application, microtiter plates were incubated at about 28 ± 1°C and about 80 ± 5 % relative humidity for 5 days. Egg and larval mortality was then visually assessed.

[4] = system: Boll weevil (Anthonomus grandis); assay: Boll weevil insect diet test in microtiter plates; conditions: 120 h, egg and larval mortality, 5 days, in comparison with untreated controls
Method: For evaluating control of boll weevil (Anthonomus grandis) the test unit consisted of 96-well-microtiter plates containing an insect diet and 5-10 A. grandis eggs.
The compounds were formulated using a solution containing 75% v/v water and 25% v/v DMSO. Different concentrations of formulated compounds were sprayed onto the insect diet at 5µl, using a custom-built micro atomizer, at two replications.
After application, microtiter plates were incubated at about 25 ± 1°C and about 75 ± 5 % relative humidity for 5 days. Egg and larval mortality was then visually assessed.

[5] = system: Southern armyworm (Spodoptera eridania), 2nd instar larvae; assay: Southern armyworm foliar spray test on lima bean plants; conditions: 96 h, 4 days after treatment, in comparison with untreated controls
Method: The active compounds were formulated by a Tecan liquid handler in 100% cyclohexanone as a 10,000 ppm solution supplied in tubes. The 10,000 ppm solution was serially diluted in 100% cyclohexanone to make interim solutions. These served as stock solutions for which final dilutions were made by the Tecan in 50% acetone:50% water (v/v) into 10 or 20ml glass vials. A nonionic surfactant (Kinetic®) was included in the solution at a volume of 0.01% (v/v). The vials were then inserted into an automated electrostatic sprayer equipped with an atomizing nozzle for application to plants/insects. Lima bean plants (variety Sieva) were grown 2 plants to a pot and selected for treatment at the 1st true leaf stage. Test solutions were sprayed onto the foliage by an auto-mated electrostatic plant sprayer equipped with an atomizing spray nozzle. The plants were dried in the sprayer fume hood and then removed from the sprayer. Each pot was placed into perforated plastic bags with a zip closure. Ten to 11 armyworm larvae were placed into the bag and the bags zipped closed. Test plants were maintained in a growth room at about 25°C and about 20-40% relative humidity for 4 days, avoiding direct exposure to fluorescent light (14:10 light:dark photoperiod) to prevent trapping of heat inside the bags. Mortality and reduced feeding were assessed 4 days after treatment, compared to untreated control plants.

[6] = system: Orchid thrips (Dichromothrips corbetti); assay: Orchid thrips floral-immersion test; conditions: adult thrips, 72 hours after treatment, in comparison with untreated controls
Method: Dichromothrips corbetti adults used for bioassay were obtained from a colony maintained continuously under laboratory conditions. For testing purposes, the test compound is diluted in a 1:1 mixture of acetone:water (vol:vol), plus Kinetic HV at a rate of 0.01% v/v.
Thrips potency of each compound was evaluated by using a floral-immersion technique. All petals of individual, intact orchid flowers were dipped into treatment solution and allowed to dry in Petri dishes. Treated petals were placed into individual re-sealable plastic along with about 20 adult thrips. All test arenas were held under continuous light and a temperature of about 28°C for duration of the assay. After 3 days, the numbers of live thrips were counted on each petal. The percent mortality was recorded 72 hours after treatment.

Cc1nc(-c2nccnc2C(C)NC(=O)c2cc(C(F)(F)F)cc(C(F)(F)F)c2)no1 (stereo not drawn) [I-1, N-[1-[3-(5-methyl-1,2,4-oxadiazol-3-yl)pyrazin-2-yl]ethyl]-3,5-bis(trifluoromethyl)benzamide]
≥ 75%: mortality at 300 ppm [1] | mortality at 2500 ppm [2] | mortality at 2500 ppm [3] | mortality at 2500 ppm [4] | mortality at 300 ppm [5]

CCN(C)C(=O)c1nc(-c2nccnc2C(C)NC(=O)c2cc(C(F)(F)F)cc(C(F)(F)F)c2)no1 (stereo not drawn) [I-2, 3-[3-[1-[[3,5-bis(trifluoromethyl)benzoyl]amino]ethyl]pyrazin-2-yl]-N-ethyl-N-methyl-1,2,4-oxadiazole-5-carboxamide]
≥ 75%: mortality at 300 ppm [1] | mortality at 2500 ppm [3] | mortality at 2500 ppm [4]

Cc1nc(-c2nccnc2C(C)N(CC2CC2)C(=O)c2cc(C(F)(F)F)cc(C(F)(F)F)c2)no1 (stereo not drawn) [I-3, N-(cyclopropylmethyl)-N-[1-[3-(5-methyl-1,2,4-oxadiazol-3-yl)pyrazin-2-yl]ethyl]-3,5-bis(trifluoromethyl)benzamide]
≥ 75%: mortality at 300 ppm [1] | mortality at 2500 ppm [2] | mortality at 2500 ppm [4] | mortality at 300 ppm [5] | mortality at 300 ppm [6]

CNC(=O)c1nc(-c2nccnc2C(C)N(CC2CC2)C(=O)c2cc(C(F)(F)F)cc(C(F)(F)F)c2)no1 (stereo not drawn) [I-4, 3-[3-[1-[[3,5-bis(trifluoromethyl)benzoyl]-(cyclopropylmethyl)amino]ethyl]pyrazin-2-yl]-N-methyl-1,2,4-oxadiazole-5-carboxamide]
≥ 75%: mortality at 2500 ppm [3] | mortality at 2500 ppm [4]
